The record followed here is US12678423B2, “Therapeutic agent for amyotrophic lateral sclerosis and composition for treatment” (KEIO UNIVERSITY, priority 2016, dated 2026).

Common to all, as to assay type: cell-based, human
Test [1] deals with motor neurons induced to differentiate from iPS cells derived from ALS patients (FUS-ALS) having a mutation in FUS. The experiment in a line: Neurite length, FUS-ALS motor neurons (screening, Example I-8). As for the experimental part: For each differentiation-induced motor neuron in Example I-1, the changes over time in the neurite length were measured. A Bio station CT (Nikon Corp.) was used to measure the neurite length over time. FIG. 1 is a graph showing measurement results of changes over time in the neurite length. The vertical axis represents neurite length (relative value), and the horizontal axis represents the number of days of culturing from the start of differentiation induction.
Using the differentiation-induced motor neurons in Example I-1, drugs which cause the ALS phenotype to be restored were screened from existing drug libraries with the neurite length, ectopic localization of FUS protein, stress granule formation, LDH leakage ratio, CV-caspase 3-positive ratio, phosphorylated TDP-43 protein inclusion formation, and the like as indices.
As a result of the screening, ropinirole was found as a promising therapeutic agent for ALS. Tables 5 and 6 show the improvement ratio (%) in the ALS phenotype due to adding ropinirole to the medium. Here, ropinirole was added to the medium on days 35 to 40 from the start of the differentiation induction of each iPS cell. Here, it is assumed that days 35 to 40 from the start of differentiation induction correspond to the early stage of the ALS disease.
(§1) The improvement ratio (%) of the ALS phenotype was calculated by Equation (1).
(§2) [formula] [In Equation (1), A represents a measurement value of motor neurons induced to differentiate from iPS cells derived from ALS patients in the absence of ropinirole, and B represents a measurement value of motor neurons induced to differentiate from iPS cells derived from ALS patients in the presence of ropinirole, and C represents a measurement value of motor neurons induced to differentiate from iPS cells derived from healthy subjects in the absence of ropinirole.]
(§3) Subsequently, in the same manner as above, the efficacy in cases of administering lower concentrations of ropinirole was evaluated.
(§4) Each drug was added to the medium at a final concentration of 10 μM.

The test system is the same in test [2]. The experiment in a line: LDH leakage ratio, FUS-ALS motor neurons. As to the method:
The leakage amount of LDH into the medium is an indicator of cytotoxicity. For measurement of the LDH leakage ratio, a commercially available kit (model “LDH Cytotoxicity Detection Kit”, Takara Bio Inc.) was used.
Here, ropinirole was added to the medium on days 35 to 40 from the start of the differentiation induction of each iPS cell. Here, it is assumed that days 35 to 40 from the start of differentiation induction correspond to the early stage of the ALS disease.
as §1, §2, §3, §4
In general terms: LDH in the medium is a marker of cell lysis.

The test system of test [3] is motor neurons differentiated from iPS cells derived from 24 patients having sporadic ALS (SALS). Kind of test: CV caspase 3-positive ratio, 24 sporadic ALS patient models (Example III-5). As to conditions: final concentration 1 μM for 5 days. As to the method:
In the same manner as in Example II-1, iPS cells derived from 24 patients having sporadic ALS (SALS) were differentiated into motor neurons and then ropinirole with a final concentration of 1 μM was added to the medium. In addition, for comparison, a group for which ropinirole was not added to the medium was prepared. In addition, as a control, a group for which iPS cells derived from healthy subjects were differentiated into motor neurons in the same manner as in Example I-1 was used. No ropinirole was added to the medium of these motor neurons. As the iPS cells derived from a healthy subject, the same cells as used in Example I-1 were used.
Below, each differentiated motor neuron is identified by the patient number from whom the neuron was derived.
In all of the motor neurons, the addition period of ropinirole was 5 days. The time to start the addition of ropinirole varied depending on the case and was from day 30 to day 70 from the start of the differentiation induction of each of the iPS cells.
Subsequently, for each motor neuron on day 5 after the addition of ropinirole, the ratio of CV caspase 3-positive neurons was measured in the same manner as in Example I-3.
FIG. 15 is a graph showing the measurement results of the ratio of CV caspase 3-positive neurons. […]

Test [4] deals with motor neurons induced to differentiate from iPS cells derived from ALS patients (TDP-43-ALS) having a mutation in TDP-43. The experiment in a line: Neurite length in late stage ALS disease, TDP-43-ALS (Example I-9). As to conditions: final concentration 1 μM, added days 50 to 62 from start of differentiation induction, FIG. 14. As for the experimental part:
The efficacy of ropinirole was evaluated in the same manner as in Example I-8, except that the timing of adding ropinirole was changed to days 50 to 62 from the start of the differentiation induction of each iPS cell. It is assumed that days 50 to 62 after the start of induction of differentiation correspond to the late stage of the ALS disease.
Specifically, ropinirole was added to a medium of motor neurons induced to differentiate from iPS cells derived from ALS patients (FUS-ALS) having a mutation in FUS and motor neurons induced to differentiate from iPS cells derived from ALS patients (TDP-43-ALS) having a mutation in TDP-43 and the changes over time in the neurite length were measured. The measurement of neurite length was carried out in the same manner as in Example I-2. Ropinirole was added to the medium at a final concentration of 1 μM.
FIG. 14(a) is a graph showing the results of measurement of the changes over time in the neurite length of each motor neuron. In FIG. 14(a), the vertical axis represents the neurite length (relative value), the horizontal axis represents the number of days of culturing from the start of differentiation induction, and “+ROPI” represents the result of adding ropinirole to the medium. In addition, FIG. 14(b) is a graph enlarging the boxed portion of the graph of FIG. 14(a). […]

[5] abbreviates: final concentration 1 μM, added days 35 to 40.
Setting [6] is: final concentration 10 μM, added days 35 to 40.

As to `CCCN(CCC)CCc1cccc2c1CC(=O)N2` [Ropinirole, 4-(2-di-n-propylaminoethyl)-2(3H)-indole], the “Neurite length improvement ratio” value is on record as 3.22% in test [1] (final concentration 0.1 nM); 32.3% in test [1] (final concentration 1 nM); 45.8% in test [1] (final concentration 10 nM); 43.3% in test [1] (final concentration 0.1 μM, added days 35 to 40 from start of differentiation induction); 58.3% in test [1] (setting [5]); 61.3% in test [1] (setting [6]). The “LDH leakage ratio improvement ratio” value in test [2] (final concentration 0.1 nM) was found to be 10.1%; in test [2] (final concentration 1 nM), 31.1%; in test [2] (final concentration 10 nM), 39.4%; in test [2] (final concentration 0.1 μM, added days 35 to 40), 33.5%; in test [2] (setting [5]), 48.0%; in test [2] (setting [6]), 47.6%. Moreover, the “Share of SALS cases in which the increase in CV caspase 3-positive ratio was suppressed” value in test [3] (16 of 22 cases) is given as 72.73 % of SALS cases. Further, the “Cases in which the increase in CV caspase 3-positive ratio was suppressed” value in test [3] (among 22 SALS cases with confirmed increase (of 24), FIG. 15) is 16 cases. The “Neurite length (changes over time), late stage” value in test [4] is recorded as “neuroprotective action (maintenance of neurite length)”.
